Numbers after ± are expanded uncertainties.
Settings: Liquid; for viscosity: Falling or rolling sphere viscometry; for mass density: Constant-volume piezometry

CCCCn1cc[n+](C)c1.F[P-](F)(F)(F)(F)F [1-butyl-3-methylimidazolium hexafluorophosphate] gave a viscosity (293.15 K, 100 kPa) of 395 ± 42 mPa·s, a mass density (293.15 K, 15000 kPa) of 1377 ± 6 kg/m3 and a viscosity (293.15 K, 15000 kPa) of 468 ± 43 mPa·s. It also gave a mass density (293.15 K, 20000 kPa) of 1379 ± 6 kg/m3, a viscosity (293.15 K, 20000 kPa) of 504 ± 47 mPa·s and a mass density (313.15 K, 15000 kPa) of 1362 ± 6 kg/m3. For the same compound, the viscosity (313.15 K, 15000 kPa) was 140 ± 10 mPa·s, the mass density (313.15 K, 20000 kPa) was 1364 ± 6 kg/m3 and the viscosity (313.15 K, 20000 kPa) was 151 ± 11 mPa·s. For the same compound, the mass density (333.15 K, 15000 kPa) was 1346 ± 5 kg/m3, the viscosity (333.15 K, 15000 kPa) was 61 ± 3.7 mPa·s and the mass density (333.15 K, 20000 kPa) was 1349 ± 5 kg/m3. The viscosity (333.15 K, 20000 kPa) was 63.2 ± 3.9 mPa·s, the mass density (353.15 K, 15000 kPa) was 1330 ± 5 kg/m3 and the viscosity (353.15 K, 15000 kPa) was 29.3 ± 1.8 mPa·s. The mass density (353.15 K, 20000 kPa) was 1332 ± 5 kg/m3 and the viscosity (353.15 K, 20000 kPa) was 30.5 ± 1.9 mPa·s.

From the NIST ThermoML archive (doi:10.1021/je700022b)
